# Test results: patent US11485740B2, “Inhibitors of TRPC6” (Boehringer Ingelheim International GmbH, priority 2018, dated 2022)
# Biological target: T1, human TRPC6 (Homo sapiens, UniProt Q9Y210)
# T1 construct: expressed in transfected cells
# T1 sequence (Q9Y210 1-931): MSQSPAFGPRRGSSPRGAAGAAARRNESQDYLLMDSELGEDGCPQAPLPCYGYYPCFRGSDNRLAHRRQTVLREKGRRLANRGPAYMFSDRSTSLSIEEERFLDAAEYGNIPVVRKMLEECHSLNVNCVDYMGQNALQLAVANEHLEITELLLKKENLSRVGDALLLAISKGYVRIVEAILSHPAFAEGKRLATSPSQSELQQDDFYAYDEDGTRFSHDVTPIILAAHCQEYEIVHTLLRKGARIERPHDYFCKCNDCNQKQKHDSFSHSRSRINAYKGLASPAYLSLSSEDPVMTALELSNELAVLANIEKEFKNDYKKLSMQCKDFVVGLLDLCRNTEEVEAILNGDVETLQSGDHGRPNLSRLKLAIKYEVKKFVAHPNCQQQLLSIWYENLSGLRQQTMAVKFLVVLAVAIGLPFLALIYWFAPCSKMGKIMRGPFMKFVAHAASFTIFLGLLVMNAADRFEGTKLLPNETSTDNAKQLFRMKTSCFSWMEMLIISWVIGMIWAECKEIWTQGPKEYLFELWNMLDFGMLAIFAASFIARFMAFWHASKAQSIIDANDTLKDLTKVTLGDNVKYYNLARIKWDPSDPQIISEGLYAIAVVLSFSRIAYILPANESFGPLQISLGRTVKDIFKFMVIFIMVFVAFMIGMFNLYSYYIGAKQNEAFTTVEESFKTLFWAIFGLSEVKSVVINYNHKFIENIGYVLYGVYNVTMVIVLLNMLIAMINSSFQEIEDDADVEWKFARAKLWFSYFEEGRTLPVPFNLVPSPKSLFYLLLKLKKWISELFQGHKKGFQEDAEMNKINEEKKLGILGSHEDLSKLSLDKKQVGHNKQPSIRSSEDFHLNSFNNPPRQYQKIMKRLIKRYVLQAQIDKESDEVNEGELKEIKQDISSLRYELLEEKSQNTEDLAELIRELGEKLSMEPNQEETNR
# Experiment: High throughput screening assay: Fluo4/AM calcium fluorescence in HEK293/TREx cells expressing human TRPC6, agonist GSK1702934A (single concentration 10 μM and IC50 curves)
# Assay type: cell-based
# Conditions: antagonist effect against human TRPC6, 7 concentrations 20 μM to 0.027 μM, triplicate
# Text: High Throughput Screening Assay
# This screening assay measures human TRPC6 (transient receptor potential cation channel, subfamily C, member 6) ion channel activation via addition either of the commercially available DAG ligand analogue OAG (1-oleoyl-2-acetyl-sn-glycerol) or of the TRPC6 agonist 1-[1-(4,5,6,7,8-pentahydrocyclohepta[2,1-d]thiophen-2-ylcarbonyl)-4-piperidyl]-3-hydrobenzimidazol-2-one (GSK1702934A). The assay utilizes a fluorescent calcium sensor 4-(6-Acetoxymethoxy-2,7-difluoro-3-oxo-9-xanthenyl)-4′-methyl-2,2′-(ethylenedioxy)dianiline-N,N,N′,N′-tetraacetic acid tetrakis(acetoxymethyl) ester (Fluo4/AM) dye from Molecular Devices. Changes (increases) in intracellular calcium concentration as measured by the fluorescent signal increase provide a measurement of channel activity.
# The commercially available HEK293/TREx line (Invitrogen) was stably transfected with a human TRPC6 construct and screened by conventional calcium imaging to find clones with human TRPC6 expression following stimulation with 1 μg/ml tetracycline. These cells were maintained in the growth medium recommended by the manufacturer supplemented with 100 μg/ml hygromycin to promote retention of the human TRPC6 construct. After growing to near confluency, cells were plated at a density of ^˜35,000 cells/well in 384 well CellBind plates (Corning) in the presence of 1 μg/ml tetracycline, and allowed to grow for 20-30 hrs. A nearly confluent monolayer resulted. Growth media was removed from the wells and cells were then loaded with […] Fluo4/AM diluted in Ringer's Solution (6.5 g NaCl, 0.42 g KCl, 0.25 g CaCl2) and 0.2 g of sodium bicarbonate; pH 7.4) supplemented with 1% Pluronic F-127 to a final concentration of 0.5 μM and incubated for 60 min, at room temperature. Dye solution was then removed from the cells by inverting plates with a sharp flick, and replaced with 25 μl Ringer's. Following ^˜0.5 hour for recovery from loading, cells were assayed using the Hamamatsu FDSS 6000 system, which permitted illumination at 485 nm. Frames were acquired at a rate of 0.2 Hz. During the assay, the plates were continuously vortexed, with pipette mixing of wells following addition of each reagent. For the screening assay, 26 μl of a diluted compound stock (at 50 μM) was added to each well for 2 minutes following the collection of a short (4 frame) baseline. 13 μl of agonist solution consisting of 125 nM GSK1702934A diluted in high-Ca2+Ringer solution (containing 90 mM Ca2+) was then added to each well, achieving a final concentration of 20 mM Ca2+ and 10 μM test compound. Data was collected for ^˜3 minutes following addition of high Ca2+Ringer. The fluorescent intensity observed at a particular timepoint for each well was divided by the initial fluorescent intensity for that well and the overall response was determined by averaging the resulting fluorescent ratio of the last 4 frames acquired during the experiment excepting the final frame. Negative and Positive controls were included on each plate. Negative controls wells consisted of HEK293/TREx TRPC6 cells exposed to assay buffer and agonist solution, but no test compound. Positive control consisted of wells consisted of HEK293/TREx TRPC6 cells exposed to 25 μM 3-[(2-chlorophenoxy)methyl]phenyl piperidyl ketone (Chembridge) diluted in Ringer's solution and agonist solution. These controls defined zero percent and 100 percent block respectively, and intensity of each well was normalized to these values.
# Compounds were tested in triplicate at all concentrations. Standard software was used to fit IC50 curves.
row,IC50 [nM],SMILES
1,190,"COc1cc(C(=O)N2CCC(c3ccc(N)nn3)CC2)ncc1-c1ccc(OCC2CC2)nc1 [Compound 50, [4-(6-Amino-pyridazin-3-yl)-piperidin-1-yl]-(6′-cyclopropylmethoxy-4-methoxy-[3,3′]bipyridinyl-6-yl)-methanone]"
2,900,"COc1cc(C(=O)N2CCC(c3ccc(N)nn3)CC2)ncc1-c1ccc(C)c(C#N)c1 [Compound 51, 5-{6-[4-(6-Amino-pyridazin-3-yl)-piperidine-1-carbonyl]-4-methoxy-pyridin-3-yl}-2-methyl-benzonitrile]"
3,3600,"COc1cc(C(=O)N2CCC(c3ccc(N)nn3)CC2)ncc1-c1cnc(OC(C)C)nc1 [Compound 53, [4-(6-Amino-pyridazin-3-yl)-piperidin-1-yl]-[5-(2-isopropoxy-pyrimidin-5-yl)-4-methoxy-pyridin-2-yl]-methanone]"
4,830,COc1cc(C(=O)N2CCC(c3ccc(N)nn3)CC2)ncc1-c1cnc(OCC(F)(F)F)nc1 [Compound 54]
5,430,"COc1cc(C(=O)N2CCC(c3ccc(N)nn3)CC2)ccc1-c1ccc(C(F)(F)F)cc1 [Compound 55, [4-(6-Amino-pyridazin-3-yl)-piperidin-1-yl]-(2-methoxy-4′-trifluoromethyl-biphenyl-4-yl)-methanone]"
6,910,"COc1cc(C(=O)N2CCC(c3ccc(N)nn3)CC2)ccc1-c1ccc(OC(F)(F)F)cc1 [Compound 56, [4-(6-Amino-pyridazin-3-yl)-piperidin-1-yl]-(2-methoxy-4′-trifluoromethoxy-biphenyl-4-yl)-methanone]"
7,320,"COc1cc(C(=O)N2CCC(c3ccc(N)nn3)CC2)ccc1-c1ccc(OC(C)C)cc1 [Compound 57, [4-(6-Amino-pyridazin-3-yl)-piperidin-1-yl]-(4′-isopropoxy-2-methoxy-biphenyl-4-yl)-methanone]"
8,81,"COc1cc(C(=O)N2CCC(c3ccc(N)nn3)CC2)ccc1-c1ccc(OCC(F)(F)F)cc1 [Compound 58, [4-(6-Amino-pyridazin-3-yl)-piperidin-l-yl]-[2-methoxy-4′-(2,2,2-trifluoro-ethoxy)-biphenyl-4-yl]-methanone]"
9,640,"COc1cc(C(=O)N2CCC(c3ccc(N)nn3)CC2)ccc1-c1ccc(C(F)(F)F)nc1 [Compound 59, [4-(6-Amino-pyridazin-3-yl)-piperidin-1-yl]-[3-methoxy-4-(6-trifluoromethyl-pyridin-3-yl)-phenyl]-methanone]"
10,930,"COc1cc(C(=O)N2CCC(c3ccc(N)nn3)CC2)ccc1-c1ccccc1 [Compound 60, [4-(6-Amino-pyridazin-3-yl)-piperidin-1-yl]-(2-methoxy-biphenyl-4-yl)-methanone]"
11,4100,"COc1cc(C(=O)N2CCC(c3ccc(N)nn3)CC2)ccc1-c1ccnc(C(F)(F)F)c1 [Compound 61, [4-(6-Amino-pyridazin-3-yl)-piperidin-1-yl]-[3-methoxy-4-(2-trifluoromethyl-pyridin-4-yl)-phenyl]-methanone]"
12,1100,"COc1cc(C(=O)N2CCC(c3ccc(N)nn3)CC2)ccc1-c1cnc(OC(C)C)nc1 [Compound 62, [4-(6-Amino-pyridazin-3-yl)-piperidin-1-yl]-[4-(2-isopropoxy-pyrimidin-5-yl)-3-methoxy-phenyl]-methanone]"
13,4700,"Cc1cc(C(=O)N2CCC(c3ccc(N)nn3)CC2)ccc1-c1ccc(C(F)(F)F)cc1 [Compound 63, [4-(6-Amino-pyridazin-3-yl)-piperidin-1-yl]-(2-methyl-4′-trifluoromethyl-biphenyl-4-yl)-methanone]"
14,1300,"COc1nc(C(=O)N2CCC(c3ccc(N)nn3)CC2)ccc1-c1ccc(C(F)(F)F)cc1 [Compound 64, [4-(6-Amino-pyridazin-3-yl)-piperidin-1-yl]-[6-methoxy-5-(4-trifluoromethyl-phenyl)-pyridin-2-yl]-methanone]"
15,860,"COc1cc(C(=O)N2CCC(c3ccc(N)nn3)CC2)cnc1-c1ccc(C(F)(F)F)cc1 [Compound 65, [4-(6-Amino-pyridazin-3-yl)-piperidin-1-yl]-[5-methoxy-6-(4-trifluoromethyl-phenyl)-pyridin-3-yl]-methanone]"
16,520,"COc1cc(-c2ccc(C(F)(F)F)cc2)ccc1C(=O)N1CCC(c2ccc(N)nn2)CC1 [Compound 66, [4-(6-Amino-pyridazin-3-yl)-piperidin-1-yl]-(3-methoxy-4′-trifluoromethyl-biphenyl-4-yl)-methanone]"
17,210,"COc1cc(C(=O)N2CCN(c3ccc(N)nc3)CC2)ncc1-c1ccc(C(F)(F)F)nc1 [Compound 67, [4-(6-Amino-pyridin-3-yl)-piperazin-1-yl]-(4-methoxy-6′-trifluoromethyl-[3,3′]bipyridinyl-6-yl)-methanone]"
18,39,"COc1cc(C(=O)N2CCN(c3ccc(N)nc3)CC2)ncc1-c1ccccc1 [Compound 68, 5-[4-(4-Methoxy-5-phenylpyridine-2-carbonyl)piperazin-1-yl]pyridin-2-amine]"
19,360,"Cc1cc(-c2ccc(C(F)(F)F)cc2)ccc1C(=O)N1CCC(c2ccc(N)nn2)CC1 [Compound 69, [4-(6-Amino-pyridazin-3-yl)-piperidin-1-yl]-(3-methyl-4′-trifluoromethyl-biphenyl-4-yl)-methanone]"
20,1400,"CCc1cc(C(=O)N2CCC(c3ccc(N)nn3)CC2)ccc1-c1ccc(C(F)(F)F)cc1 [Compound 70, [4-(6-Amino-pyridazin-3-yl)-piperidin-1-yl]-(2-ethyl-4′-trifluoromethyl-biphenyl-4-yl)-methanone]"
21,27,"COc1cc(C(=O)N2CCC(c3ccc(N)nc3)CC2)ncc1-c1ccccc1 [Compound 71, 5-[1-(4-Methoxy-5-phenylpyridine-2-carbonyl)piperidin-4-yl]pyridin-2-amine]"
22,27,"COc1cc(C(=O)N2CCC(c3ccc(N)nc3)CC2)ncc1-c1ccc(F)cc1 [Compound 72, (6-Amino-3′,4′,5′,6′-tetrahydro-2′H-[3,4′]bipyridinyl-1′-yl)-[5-(4-fluoro-phenyl)-4-methoxy-pyridin-2-yl]methanone]"

row,SMILES,IC50 [nM]
1,"COc1cc(C(=O)N2CCC(c3ccc(N)nn3)CC2)ncc1-c1ccc(OC2CCC2)nc1 [Compound 49, [4-(6-Amino-pyridazin-3-yl)-piperidin-1-yl]-(6′-cyclobutoxy-4-methoxy-[3,3′]bipyridinyl-6-yl)-methanone]",140
2,"COc1cc(C(=O)N2CCC(c3ccc(N)nn3)CC2)ncc1-c1cccc(OCC(C)C)c1 [Compound 52, [4-(6-Amino-pyridazin-3-yl)-piperidin-1-yl]-[5-(3-isobutoxy-phenyl)-4-methoxy-pyridin-2-yl]-methanone]",240
